Assay results taken from article PMC10716780, “The multistep oxidation of cholesterol to pregnenolone by human cytochrome P450 11A1 is highly processive” (The Journal of Biological Chemistry, 2023).

Biological target: T1, human P450 11A1 (Homo sapiens, UniProt P05108)
T1 sequence (P05108 41-521 limits assumed): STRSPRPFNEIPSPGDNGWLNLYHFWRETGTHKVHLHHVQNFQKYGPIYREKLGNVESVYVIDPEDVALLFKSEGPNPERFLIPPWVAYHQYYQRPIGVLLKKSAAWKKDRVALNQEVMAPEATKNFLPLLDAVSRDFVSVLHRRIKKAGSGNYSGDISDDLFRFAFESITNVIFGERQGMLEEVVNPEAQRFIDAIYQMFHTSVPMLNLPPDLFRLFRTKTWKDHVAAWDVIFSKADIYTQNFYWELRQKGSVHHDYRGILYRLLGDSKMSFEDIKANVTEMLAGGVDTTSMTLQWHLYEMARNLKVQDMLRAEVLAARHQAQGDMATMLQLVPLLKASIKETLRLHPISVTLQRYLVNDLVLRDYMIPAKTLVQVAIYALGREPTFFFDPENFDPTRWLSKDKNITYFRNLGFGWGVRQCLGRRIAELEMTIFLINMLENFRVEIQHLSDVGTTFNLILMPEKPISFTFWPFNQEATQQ
T1 sequence (P00257 59-186 partner): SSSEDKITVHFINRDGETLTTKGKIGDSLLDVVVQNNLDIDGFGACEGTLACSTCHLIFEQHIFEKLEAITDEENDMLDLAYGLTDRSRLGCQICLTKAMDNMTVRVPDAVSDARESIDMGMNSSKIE
Test: Single-turnover kinetics of P450 11A1 with [1,2-3H]-cholesterol (radio-HPLC)
Format: biochemical
Set-up: M A S T R S P R P F N E I P S P G D N; Met-Ala (N-terminal start residues in place of the transit peptide and Ile40) (N); made in house; host or cells: E. coli (P450 11A1 in C41(DE3); Adx and AdR in E. coli)
Protocol: In this reaction, a 5 μM complex of P450 11A1 and 4.5 μM cholesterol was assembled, and Adx was added at either equimolar (low, 5 μM) or 10-fold excess (high, 50 μM) concentrations (along with 10 μM AdR). The complex was diluted 2-fold (with 5 mM NADPH) in the apparatus to initiate the reaction, which was quenched at variable times. The products of the reaction were extracted and quantified by radio-HPLC. […] (The analysis of kinetic modeling is described below.)
P450 11A1 (5 μM) was reconstituted with its redox partners AdR (10 μM) and Adx (5 μM) on ice (10 min) prior to dilution in potassium Hepes buffer (50 mM, pH 7.4) and H2O and the addition of ^3H-cholesterol substrate (4.5 μM, 0.5 Ci/mmol). The concentration of substrate was deliberately kept slightly below the enzyme concentration to ensure that single-turnover conditions were strictly followed. The mixture (0.75 ml) was preincubated (37 °C, 5 min) in a shaking water bath prior to initiation with an equal volume of NADPH solution (5 mM, from a 10 mM stock in 50 mM potassium Hepes buffer, pH 7.4), thus reducing the concentrations of all enzymes and substrate to one-half their starting concentrations. After completing the desired incubation time, an aliquot (200 μl) was removed from the incubation and added to vials containing aqueous HCl (800 μl, 1 M). The quenched reactions were mixed with a vortex device and placed on ice. When the time course was complete, the quenched reactions were mixed with CH2Cl2 (5 ml) to extract reaction products and were centrifuged (10^3g, 5 min, 23 °C) to separate layers, and the organic (bottom) layers were transferred (4 ml) to fresh glass vials. The extraction process was repeated and the two extracts (2 × 4 ml) from each sample were combined to maximize product recovery. Samples (8 ml) were brought to dryness under a stream of nitrogen, and the dried residues were dissolved in CH3OH (75 μl) and transferred to autosampler vials for analysis by radio-HPLC.
Enzyme and NADPH solutions were prepared as described for the benchtop experiments (above) but with the modification that the concentration of Adx was increased to 50 μM (from 5 μM). […] The rapid quench-flow is a rapid mixing device that combines equal volumes (∼19 μl) of two solutions (P450 and NADPH, held at 37 °C) into a central internal chamber to initiate a reaction. After the preset reaction time is completed, the mixture (∼38 μl) is then rapidly combined with a quench solution (1 M HCl, ∼160 μl), expelled from the apparatus, and collected in vials. Utilizing this experimental design, the reaction of enzyme-substrate complex (P450 11A1-Adx-AdR and ^3H-cholesterol) was initiated with NADPH on a variable timescale (0–90 s), pooling five replicates of each time point to maximize sensitivity. The products of each quenched reaction (∼1 ml) were extracted with two volumes (5 ml) of CH2Cl2, brought to dryness, and dissolved in CH3OH as described for the benchtop experiments.
Samples (held at 4 °C) were injected (50 μl) using a Agilent 1100 Series HPLC system on a NovaPak (Waters) octadecylsilane (C18) 3.9 mm × 100 mm (4 μm) column (held at 25 °C) with a flow rate of 1.0 ml min^−1 using a gradient mobile phase of (A) H2O and (B) CH3CN as follows (all in % B, v/v): 0 min, 70%; 10 min, 100%; 35.5 min, 100%; 37 min, 30%; and 40 min, 70%).

[1] = 10-fold excess (high) Adx, time 0 s
[2] = 10-fold excess (high) Adx, time 0.25 s
[3] = 10-fold excess (high) Adx, time 0.5 s
[4] = 10-fold excess (high) Adx, time 0.75 s
[5] = 10-fold excess (high) Adx, time 1 s
[6] = 10-fold excess (high) Adx, time 2 s
[7] = 10-fold excess (high) Adx, time 2.5 s
[8] = 10-fold excess (high) Adx, time 3.5 s
[9] = 10-fold excess (high) Adx, time 5 s
[10] = 10-fold excess (high) Adx, time 6 s
[11] = 10-fold excess (high) Adx, time 7.5 s
[12] = 10-fold excess (high) Adx, time 10 s
[13] = 10-fold excess (high) Adx, time 15 s
[14] = 10-fold excess (high) Adx, time 20 s
[15] = 10-fold excess (high) Adx, time 30 s
[16] = 10-fold excess (high) Adx, time 45 s
[17] = 10-fold excess (high) Adx, time 60 s
[18] = 10-fold excess (high) Adx, time 90 s
[19] = second table, headed 10-fold excess (high) Adx, time 0 s
[20] = second table, headed 10-fold excess (high) Adx, time 10 s
[21] = second table, headed 10-fold excess (high) Adx, time 25 s
[22] = second table, headed 10-fold excess (high) Adx, time 50 s
[23] = second table, headed 10-fold excess (high) Adx, time 75 s
[24] = second table, headed 10-fold excess (high) Adx, time 100 s
[25] = second table, headed 10-fold excess (high) Adx, time 200 s
[26] = second table, headed 10-fold excess (high) Adx, time 500 s

SMILES | concentration in single-turnover reaction [1] [µM] | concentration in single-turnover reaction [2] [µM] | concentration in single-turnover reaction [3] [µM] | concentration in single-turnover reaction [4] [µM] | concentration in single-turnover reaction [5] [µM] | concentration in single-turnover reaction [6] [µM] | concentration in single-turnover reaction [7] [µM] | concentration in single-turnover reaction [8] [µM] | concentration in single-turnover reaction [9] [µM] | concentration in single-turnover reaction [10] [µM] | concentration in single-turnover reaction [11] [µM] | concentration in single-turnover reaction [12] [µM] | concentration in single-turnover reaction [13] [µM] | concentration in single-turnover reaction [14] [µM] | concentration in single-turnover reaction [15] [µM] | concentration in single-turnover reaction [16] [µM] | concentration in single-turnover reaction [17] [µM] | concentration in single-turnover reaction [18] [µM] | concentration in single-turnover reaction [19] [µM] | concentration in single-turnover reaction [20] [µM] | other results
CC(C)CC[C@@H](O)[C@](C)(O)[C@H]1CC[C@H]2[C@@H]3CC=C4C[C@@H](O)CC[C@]4(C)[C@H]3CC[C@]12C [20R,22R-(OH)2 Chol, (20R,22R)-Cholest-5-ene-3β,20,22-triol] | 0 | 0 | 0.1366 | 0.2407 | 0.2278 | 0.1672 | 0.2051 | 0.184 | 0.1911 | 0.1865 | 0.2095 | 0.1817 | 0.1522 | 0.1106 | 0.03422 | 0 | 0 | 0 | 0 | 0.239 | concentration in single-turnover reaction [21]: 0.1619 µM; concentration in single-turnover reaction [22]: 0.07194 µM; concentration in single-turnover reaction [23]: 0.04787 µM; concentration in single-turnover reaction [24]: 0 µM; concentration in single-turnover reaction [25]: 0 µM; concentration in single-turnover reaction [26]: 0 µM
CC(=O)[C@H]1CC[C@H]2[C@@H]3CC=C4C[C@@H](O)CC[C@]4(C)[C@H]3CC[C@]12C [Pregnenolone] | 0 | 0 | 0 | 0.1368 | 0.3142 | 0.6865 | 0.7647 | 1.037 | 1.311 | 1.385 | 1.618 | 2.345 | 2.973 | 3.346 | 3.763 | 4.002 | 4.116 | 4.189 | 0 | 1.241 | concentration in single-turnover reaction [21]: 2.512 µM; concentration in single-turnover reaction [22]: 3.582 µM; concentration in single-turnover reaction [23]: 4.057 µM; concentration in single-turnover reaction [24]: 4.341 µM; concentration in single-turnover reaction [25]: 4.5 µM; concentration in single-turnover reaction [26]: 4.5 µM
CC(C)CC[C@@H](O)[C@@H](C)[C@H]1CC[C@H]2[C@@H]3CC=C4C[C@@H](O)CC[C@]4(C)[C@H]3CC[C@]12C [22R-OH Chol, 22R-hydroxycholesterol] | 0 | 0.1665 | 0.3411 | 0.2577 | 0.2098 | 0.2144 | 0.1649 | 0.1652 | 0.1576 | 0.1666 | 0.1648 | 0.1591 | 0.1351 | 0.101 | 0.09739 | 0.06928 | 0.06822 | 0.05063 | 0 | 0.2262 | concentration in single-turnover reaction [21]: 0.1763 µM; concentration in single-turnover reaction [22]: 0.1172 µM; concentration in single-turnover reaction [23]: 0.06255 µM; concentration in single-turnover reaction [24]: 0 µM; concentration in single-turnover reaction [25]: 0 µM; concentration in single-turnover reaction [26]: 0 µM
CC(C)CCC[C@@H](C)[C@H]1CC[C@H]2[C@@H]3CC=C4C[C@@H](O)CC[C@]4(C)[C@H]3CC[C@]12C [Cholesterol] | 4.5 | 4.334 | 4.022 | 3.865 | 3.748 | 3.432 | 3.365 | 3.113 | 2.84 | 2.762 | 2.508 | 1.814 | 1.24 | 0.9421 | 0.6054 | 0.4283 | 0.3162 | 0.26 | 4.5 | 2.794 | time to complete reaction, low Adx (5 μM Adx): 3 min; time to complete reaction, excess Adx (50 μM Adx): 1 min; first-order decay, rate of 22R-hydroxylation (k2), single exponential fit (10-fold (50 μM) excess Adx): 0.09 s⁻¹; concentration in single-turnover reaction [21]: 1.649 µM; concentration in single-turnover reaction [22]: 0.7284 µM; concentration in single-turnover reaction [23]: 0.3322 µM; concentration in single-turnover reaction [24]: 0.1591 µM; concentration in single-turnover reaction [25]: 0 µM; concentration in single-turnover reaction [26]: 0 µM
